Laboratory results: ChEMBL document CHEMBL4359836, “Synthesis and Biological Assessment of Pyrrolobenzoxazine Scaffold as a Potent Antioxidant” (J Med Chem, 2019)
The source made the active and inactive calls. The calls are words filed in the database; no cut-off is given here.

Assays:
Capra hircus [1] = species on record: Capra hircus; test: Effect on alpha-ketoglutarate dehydrogenase in goat cardiac mitochondria assessed as reversal of CuCl2/ascorbic acid induced reduction in Vmax at 66 uM using alpha-ketoglutarate as substrate by Lineweaver-Burk double reciprocal plot analysis; settings: Heart
Capra hircus [2] = species on record: Capra hircus; test: Effect on ICDH in goat cardiac mitochondria assessed as reversal of CuCl2/ascorbic acid induced reduction in Vmax at 66 uM using isocitrate as substrate after 1 hr by Lineweaver-Burk double reciprocal plot analysis; settings: Heart
Mitochondria [3] = test: Antioxidant activity in goat cardiac mitochondria assessed as inhibition of CuCl2/ascorbic acid-induced protein carbonyl content at 16.5 uM after 1 hr by DNPH assay relative to control; assay type: functional, subcellular; settings: Capra hircus, Heart, Mitochrondria
Mitochondria [4] = test: Protective activity against CuCl2/ascorbic acid-induced apoptotic alteration in goat cardiac mitochondria assessed as reversal of CuCl2/ascorbic acid-induced reduction in cytochrome c oxidoreductase activity incubated for 1 hr and measured at 10 secs time interval for 90 secs by spectrophotometric analysis; assay type: functional, subcellular; settings: Capra hircus; Heart; Mitochrondria
Mitochondria [5] = test: Antioxidant activity in goat cardiac mitochondria assessed as reversal of CuCl2/ascorbic acid-induced reduction in GSH level at 33 uM after 1 hr by DTNB reagent based method relative to control; assay type: functional, subcellular; settings: Capra hircus, Heart, Mitochrondria
Mitochondria [6] = test: Antioxidant activity in goat cardiac mitochondria assessed as reversal of CuCl2/ascorbic acid-induced reduction in GSH level at 66 uM after 1 hr by DTNB reagent based method relative to control; assay type: functional, subcellular; settings: Capra hircus, Heart, Mitochrondria
Mitochondria [7] = test: Antioxidant activity in goat cardiac mitochondria assessed as reversal of CuCl2/ascorbic acid-induced reduction in GSH level after 1 hr by DTNB reagent based method; assay type: functional, subcellular; settings: Capra hircus; Heart; Mitochrondria
[8] = Effect on PDH levels in goat cardiac mitochondria at 8.25 to 66 uM using sodium pyruvate as substrate after 1 hr by spectrophotometric analysis; assay type: ADME, subcellular, Capra hircus, Heart, Mitochrondria
Mitochondria [9] = test: Antioxidant activity in goat cardiac mitochondria assessed as inhibition of CuCl2/ascorbic acid-induced protein carbonyl content at 33 uM after 1 hr by DNPH assay relative to control; assay type: functional, subcellular; settings: Capra hircus, Heart, Mitochrondria
[10] = Binding affinity to Cu2+ assessed as binding constant K3 at 66 uM in presence of CuCl2 by isothermal titration calorimetry
Mitochondria [11] = test: Antioxidant activity in goat cardiac mitochondria assessed as inhibition of CuCl2/ascorbic acid-induced protein carbonyl content at 8.25 uM after 1 hr by DNPH assay relative to control; assay type: functional, subcellular; settings: Capra hircus, Heart, Mitochrondria
Capra hircus [12] = species on record: Capra hircus; test: Effect on ICDH in goat cardiac mitochondria assessed as reversal of CuCl2/ascorbic acid induced reduction in Km at 66 uM using isocitrate as substrate after 1 hr by Lineweaver-Burk double reciprocal plot analysis; settings: Heart
Mitochondria [13] = test: Antioxidant activity in goat cardiac mitochondria assessed as inhibition of CuCl2/ascorbic acid-induced manganese superoxide dismutase at 66 uM after 1 hr by pyrogallol autoxidation method relative to control; assay type: functional, subcellular; settings: Capra hircus, Heart, Mitochrondria
Mitochondria [14] = test: Antioxidant activity in goat cardiac mitochondria assessed as inhibition of CuCl2/ascorbic acid-induced manganese superoxide dismutase after 1 hr by pyrogallol autoxidation method; assay type: functional, subcellular; settings: Capra hircus; Heart; Mitochrondria
Mitochondria [15] = test: Protective activity against CuCl2/ascorbic acid-induced apoptotic alteration in goat cardiac mitochondria assessed as reversal of CuCl2/ascorbic acid-induced reduction in cytochrome c oxidase activity at 8.25 uM and measured at 10 secs time interval for 90 secs by spectrophotometric analysis (reference value: 72.41%); assay type: functional, subcellular; design: scale not given: the % may be the effect or the level left; settings: Capra hircus, Heart, Mitochrondria
[16] = Effect on cytochrome c oxidoreductase activity in goat cardiac mitochondria at 8.25 to 66 uM incubated for 1 hr and measured at 10 secs time interval for 90 secs by spectrophotometric analysis; assay type: ADME, subcellular, Capra hircus, Heart, Mitochrondria
[17] = Binding affinity to ascorbate assessed as decrease in heat change at 66 uM in presence of ascorbic acid by isothermal titration calorimetry
Mitochondria [18] = test: Protective activity against CuCl2/ascorbic acid-induced oxidative damage in goat cardiac mitochondria assessed as reversal of CuCl2/ascorbic acid-induced reduction in fluorescence intensity at 66 uM after 1 hr by Janus green-B staining based confocal microscopic method relative to control; assay type: functional, subcellular; settings: Capra hircus, Heart, Mitochrondria
[19] = Inhibition of PDH in goat cardiac mitochondria assessed as effect on Vmax at 66 uM using sodium pyruvate as substrate after 1 hr by Lineweaver-Burk double reciprocal plot analysis; design: species or system Capra hircus, Heart
[20] = Antioxidant activity in pH 7.4 potassium phosphate buffer assessed as CuCl2/ascorbic acid induced hydroxyl radical scavenging activity by measuring deoxyribose degradation product formation after 20 mins by thiobarbituric acid based absorbance analysis; assay type: functional
[21] = Antioxidant activity in pH 7.4 potassium phosphate buffer assessed as CuCl2/ascorbic acid induced hydroxyl radical scavenging activity by measuring trolox equivalent antioxidant capacity by measuring IC50 Trolox/IC50 test compound ratio in presence of deoxyribose by thiobarbituric acid based absorbance analysis; assay type: functional
[22] = Antioxidant activity in pH 7.4 phosphate buffer assessed as DPPH radical scavenging activity by measuring trolox equivalent antioxidant capacity by measuring IC50 Trolox/IC50 test compound ratio after 30 mins by spectrophotometric analysis; assay type: functional
[23] = Pro-oxidant activity in pH 7.4 potassium phosphate buffer assessed as reduction in CuCl2/ascorbic acid induced hydroxyl radical scavenging activity at > 66 uM in presence of deoxyribose by measuring deoxyribose degradation product formation after 20 mins by thiobarbituric acid based absorbance analysis
Mitochondria [24] = test: Antioxidant activity in goat cardiac mitochondria assessed as inhibition of CuCl2/ascorbic acid-induced lipid peroxidation at 33 uM after 1 hr by thiobarbituric acid based UV-Visible spectrophotometric method (reference value: 60.11%); assay type: functional, subcellular; settings: Capra hircus, Heart, Mitochrondria
[25] = Effect on ICDH levels in goat cardiac mitochondria at 8.25 to 66 uM using isocitrate as substrate after 1 hr; assay type: ADME, subcellular, Capra hircus, Heart, Mitochrondria
Mitochondria [26] = test: Protective activity in goat cardiac mitochondria assessed as inhibition of CuCl2/ascorbic acid-induced perforated surface at 66 uM incubated for 1 hr by scanning electron microscopy; assay type: functional, subcellular; settings: Capra hircus, Heart, Mitochrondria

CCOC(=O)c1c(-c2ccc(O)c(OC)c2)cn2c1c(=O)oc1ccccc12
Activity (Capra hircus [1]): Active | Activity (Capra hircus [2]): Active | inhibition (Mitochondria [3]): 44% | Activity (Mitochondria [4]): Dose-dependent effect | fold change (FC) (Mitochondria [5]): 4.66 | fold change (FC) (Mitochondria [6]): 6.3 | Activity (Mitochondria [7]): Dose-dependent effect | Activity [8]: Non-Toxic | inhibition (Mitochondria [9]): 64.8% | K [10]: 1.04 ×10⁵ /M | inhibition (Mitochondria [11]): 21.9% | Activity (Capra hircus [12]): Active | inhibition (Mitochondria [13]): 60.9% | Activity (Mitochondria [14]): Dose-dependent effect | Activity (Mitochondria [15]): 56.2% | Activity [16]: Non-Toxic | Activity [17]: Active | fold change (FC) (Mitochondria [18]): 4.42 | inhibition (INH) [19]: Not Active | Activity [20]: Dose-dependent effect | IC50 [20]: 11 µM | MEC [20]: 66 µM | Ratio IC50 [21]: 0.9 | Ratio IC50 [22]: 0.78 | Activity [23]: Active | inhibition (Mitochondria [24]): 28.2% | Activity [25]: Non-Toxic | Activity (Mitochondria [26]): Active
